Experimental data reported in ChEMBL document CHEMBL4330132, “5-Keto-3-cyano-2,4-diaminothiophenes as selective maternal embryonic leucine zipper kinase inhibitors” (Bioorg Med Chem Lett, 2019).

What was measured:
[1] = molecular target: Maternal embryonic leucine zipper kinase (Homo sapiens, UniProt Q14680); assay: Inhibition of recombinant human MELK expressed in Escherichia coli using ZIPtide as substrate measured after 0.5 hrs by ADP-Glo assay
[2] = molecular target: RAC-gamma serine/threonine-protein kinase (Homo sapiens) (UniProt Q9Y243); assay: Binding affinity to wild-type human partial length AKT3 expressed in bacterial expression system assessed as residual binding level at 1 uM by Kinomescan method relative to control
[3] = molecular target: 5'-AMP-activated protein kinase catalytic subunit alpha-1 (Homo sapiens) (UniProt Q13131); assay: Binding affinity to wild-type human partial length AMPK alpha1 (M1 to E306 residues) expressed in bacterial expression system assessed as residual binding level at 1 uM by Kinomescan method relative to control
[4] = molecular target: NUAK family SNF1-like kinase 1 (Homo sapiens) (UniProt O60285); assay: Binding affinity to wild-type human partial length ARK5 (E25 to I332 residues) expressed in bacterial expression system assessed as residual binding level at 1 uM by Kinomescan method relative to control
[5] = molecular target: Protein-tyrosine kinase 6 (Homo sapiens) (UniProt Q13882); assay: Binding affinity to wild-type human partial length BRK (L166 to T451 residues) expressed in bacterial expression system assessed as residual binding level at 1 uM by Kinomescan method relative to control
[6] = molecular target: Cyclin-dependent kinase-like 1 (Homo sapiens) (UniProt Q00532); assay: Binding affinity to wild-type human full length CDKL1 (M1 to I358 residues) expressed in mammalian expression system assessed as residual binding level at 1 uM by Kinomescan method relative to control
[7] = test system: Epidermal growth factor receptor (Homo sapiens), P00533 [UNDEFINED MUTATION]; assay: Binding affinity to human partial length EGFR E746-A750del mutant expressed in bacterial expression system assessed as residual binding level at 1 uM by Kinomescan method relative to control
[8] = molecular target: Ephrin type-A receptor 4 (Homo sapiens) (UniProt P54764); assay: Binding affinity to wild-type human partial length EPHA4 (T601 to R897 residues) expressed in bacterial expression system assessed as residual binding level at 1 uM by Kinomescan method relative to control
[9] = molecular target: Fibroblast growth factor receptor 3 (Homo sapiens) (UniProt P22607); assay: Binding affinity to wild-type human partial length FGFR3 (R442 to S771 residues) expressed in bacterial expression system assessed as residual binding level at 1 uM by Kinomescan method relative to control
[10] = test system: Receptor-type tyrosine-protein kinase FLT3 (Homo sapiens), P36888 [UNDEFINED MUTATION]; assay: Binding affinity to human partial length FLT3 ITD mutant expressed in bacterial expression system assessed as residual binding level at 1 uM by Kinomescan method relative to control
[11] = molecular target: Tyrosine-protein kinase JAK1 (Homo sapiens) (UniProt P23458); assay: Binding affinity to wild-type human partial length JAK1 JH1 catalytic domain (V856 to K1154 residues) expressed in bacterial expression system assessed as residual binding level at 1 uM by Kinomescan method relative to control
[12] = molecular target: Mitogen-activated protein kinase kinase kinase 2 (Homo sapiens) (UniProt Q9Y2U5); assay: Binding affinity to wild-type human partial length MAP3K2 (S315 to H619 residues) expressed in mammalian expression system assessed as residual binding level at 1 uM by Kinomescan method relative to control
[13] = molecular target: Dual specificity mitogen-activated protein kinase kinase 4 (Homo sapiens) (UniProt P45985); assay: Binding affinity to wild-type human partial length MEK4 (S84 to D399 residues) expressed in mammalian expression system assessed as residual binding level at 1 uM by Kinomescan method relative to control
[14] = molecular target: MAP kinase-interacting serine/threonine-protein kinase 1 (Homo sapiens) (UniProt Q9BUB5); assay: Binding affinity to wild-type human full length MKNK1 (M1 to L424 residues) expressed in mammalian expression system assessed as residual binding level at 1 uM by Kinomescan method relative to control
[15] = molecular target: Serine/threonine-protein kinase Nek4 (Homo sapiens) (UniProt P51957); assay: Binding affinity to wild-type human full length NEK4 (M1 to F841 residues) expressed in mammalian expression system assessed as residual binding level at 1 uM by Kinomescan method relative to control
[16] = molecular target: Serine/threonine-protein kinase NIM1 (Homo sapiens) (UniProt Q8IY84); assay: Binding affinity to wild-type human partial length NIM1 (Q44 to N355 residues) expressed in mammalian expression system assessed as residual binding level at 1 uM by Kinomescan method relative to control
[17] = molecular target: Serine/threonine-protein kinase PAK 6 (Homo sapiens) (UniProt Q9NQU5); assay: Binding affinity to wild-type human partial length PAK6 (N298 to C681 residues) expressed in bacterial expression system assessed as residual binding level at 1 uM by Kinomescan method relative to control
[18] = molecular target: Cyclin-dependent kinase 14 (Homo sapiens) (UniProt O94921); assay: Binding affinity to wild-type human full length PFTK1 (M1 to H451 residues) expressed in bacterial expression system assessed as residual binding level at 1 uM by Kinomescan method relative to control
[19] = molecular target: Phosphatidylinositol 5-phosphate 4-kinase type-2 beta (Homo sapiens) (UniProt P78356); assay: Binding affinity to wild-type human full length PIP5K2B (M1 to T416 residues) expressed in bacterial expression system assessed as residual binding level at 1 uM by Kinomescan method relative to control
[20] = molecular target: Protein kinase C delta type (Homo sapiens) (UniProt Q05655); assay: Binding affinity to wild-type human partial length PRKCD (Q328 to D676 residues) expressed in bacterial expression system assessed as residual binding level at 1 uM by Kinomescan method relative to control
[21] = molecular target: Serine/threonine-protein kinase RIO1 (Homo sapiens) (UniProt Q9BRS2); assay: Binding affinity to wild-type human full length RIOK1 (M1 to K568 residues) expressed in bacterial expression system assessed as residual binding level at 1 uM by Kinomescan method relative to control
[22] = molecular target: Proto-oncogene tyrosine-protein kinase Src (Homo sapiens) (UniProt P12931); assay: Binding affinity to wild-type human partial length SRC (L240 to L536 residues) expressed in bacterial expression system assessed as residual binding level at 1 uM by Kinomescan method relative to control
[23] = molecular target: Serine/threonine-protein kinase 16 (Homo sapiens) (UniProt O75716); assay: Binding affinity to wild-type human partial length STK16 (G11 to I305 residues) expressed in bacterial expression system assessed as residual binding level at 1 uM by Kinomescan method relative to control
[24] = molecular target: Tyrosine-protein kinase Tec (Homo sapiens) (UniProt P42680); assay: Binding affinity to wild-type human partial length TEC (L341 to D620 residues) expressed in bacterial expression system assessed as residual binding level at 1 uM by Kinomescan method relative to control
[25] = molecular target: Testis-specific serine/threonine-protein kinase 1 (Homo sapiens) (UniProt Q9BXA7); assay: Binding affinity to wild-type human full length TSSK1B (M1 to Q367 residues) expressed in bacterial expression system assessed as residual binding level at 1 uM by Kinomescan method relative to control

Sequence of Phosphatidylinositol 5-phosphate 4-kinase type-2 beta (Homo sapiens) (P78356 whole entry, the tested form may be a part): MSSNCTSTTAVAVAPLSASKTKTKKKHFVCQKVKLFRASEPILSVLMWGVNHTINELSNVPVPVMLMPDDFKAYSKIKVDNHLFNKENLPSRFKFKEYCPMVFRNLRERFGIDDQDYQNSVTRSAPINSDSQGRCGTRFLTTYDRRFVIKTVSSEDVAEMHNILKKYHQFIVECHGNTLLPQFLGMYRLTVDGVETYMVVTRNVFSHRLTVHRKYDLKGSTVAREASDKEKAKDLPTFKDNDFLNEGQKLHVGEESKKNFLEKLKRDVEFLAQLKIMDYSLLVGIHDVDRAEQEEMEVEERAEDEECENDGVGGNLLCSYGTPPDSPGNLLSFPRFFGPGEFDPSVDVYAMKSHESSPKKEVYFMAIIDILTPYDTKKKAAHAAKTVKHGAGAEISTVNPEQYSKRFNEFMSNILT
Sequence of Serine/threonine-protein kinase RIO1 (Homo sapiens) (Q9BRS2 whole entry, the tested form may be a part): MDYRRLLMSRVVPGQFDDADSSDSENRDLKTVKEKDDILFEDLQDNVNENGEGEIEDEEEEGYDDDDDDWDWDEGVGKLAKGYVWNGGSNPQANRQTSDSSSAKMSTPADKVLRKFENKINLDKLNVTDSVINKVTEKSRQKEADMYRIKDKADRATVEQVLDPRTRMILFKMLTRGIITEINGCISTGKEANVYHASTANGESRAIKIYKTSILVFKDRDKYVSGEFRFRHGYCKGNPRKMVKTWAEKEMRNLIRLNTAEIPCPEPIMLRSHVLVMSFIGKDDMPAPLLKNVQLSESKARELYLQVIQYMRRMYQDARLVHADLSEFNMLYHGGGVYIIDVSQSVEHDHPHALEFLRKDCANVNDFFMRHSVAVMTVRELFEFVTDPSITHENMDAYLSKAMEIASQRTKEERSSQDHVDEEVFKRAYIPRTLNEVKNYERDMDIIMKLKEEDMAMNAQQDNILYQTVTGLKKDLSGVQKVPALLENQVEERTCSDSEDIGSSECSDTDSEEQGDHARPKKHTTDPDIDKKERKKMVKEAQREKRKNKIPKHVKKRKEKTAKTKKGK
Sequence of Fibroblast growth factor receptor 3 (Homo sapiens) (P22607 23-806 limits assumed): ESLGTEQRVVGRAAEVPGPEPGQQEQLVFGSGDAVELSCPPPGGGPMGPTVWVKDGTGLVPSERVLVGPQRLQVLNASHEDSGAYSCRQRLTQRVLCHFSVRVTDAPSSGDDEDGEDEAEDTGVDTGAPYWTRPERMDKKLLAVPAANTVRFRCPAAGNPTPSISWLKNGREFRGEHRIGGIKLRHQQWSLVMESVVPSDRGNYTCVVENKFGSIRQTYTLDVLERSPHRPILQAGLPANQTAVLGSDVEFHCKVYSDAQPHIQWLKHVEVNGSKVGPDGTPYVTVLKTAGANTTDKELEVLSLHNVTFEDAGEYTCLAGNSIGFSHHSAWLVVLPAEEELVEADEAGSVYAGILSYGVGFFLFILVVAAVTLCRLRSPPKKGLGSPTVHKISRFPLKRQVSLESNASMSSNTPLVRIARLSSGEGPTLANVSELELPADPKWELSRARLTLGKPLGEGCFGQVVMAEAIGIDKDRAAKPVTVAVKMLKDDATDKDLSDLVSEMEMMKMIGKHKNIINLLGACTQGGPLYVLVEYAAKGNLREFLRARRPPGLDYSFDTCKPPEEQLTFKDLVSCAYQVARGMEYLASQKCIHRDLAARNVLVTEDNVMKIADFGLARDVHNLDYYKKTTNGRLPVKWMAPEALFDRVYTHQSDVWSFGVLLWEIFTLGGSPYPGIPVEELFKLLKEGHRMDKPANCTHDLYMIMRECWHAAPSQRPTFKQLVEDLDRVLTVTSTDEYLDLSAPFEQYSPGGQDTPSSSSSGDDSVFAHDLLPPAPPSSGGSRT
Sequence of MAP kinase-interacting serine/threonine-protein kinase 1 (Homo sapiens) (Q9BUB5 whole entry, looked up, the tested form may be a part): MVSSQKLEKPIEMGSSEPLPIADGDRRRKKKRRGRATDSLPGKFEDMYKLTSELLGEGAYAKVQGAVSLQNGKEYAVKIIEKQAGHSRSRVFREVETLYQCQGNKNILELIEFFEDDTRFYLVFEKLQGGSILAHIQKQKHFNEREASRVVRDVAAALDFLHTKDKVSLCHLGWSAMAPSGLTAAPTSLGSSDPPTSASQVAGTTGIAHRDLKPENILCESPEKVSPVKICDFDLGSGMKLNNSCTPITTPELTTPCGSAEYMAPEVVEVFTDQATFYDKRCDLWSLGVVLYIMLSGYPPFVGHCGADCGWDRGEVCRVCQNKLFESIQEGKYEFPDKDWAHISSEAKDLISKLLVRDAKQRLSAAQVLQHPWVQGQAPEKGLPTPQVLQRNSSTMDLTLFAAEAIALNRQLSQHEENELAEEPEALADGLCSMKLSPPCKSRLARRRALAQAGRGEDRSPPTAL
Sequence of Epidermal growth factor receptor (Homo sapiens), P00533 [UNDEFINED MUTATION] (P00533 whole entry, looked up, stated change not applied, the tested form may be a part): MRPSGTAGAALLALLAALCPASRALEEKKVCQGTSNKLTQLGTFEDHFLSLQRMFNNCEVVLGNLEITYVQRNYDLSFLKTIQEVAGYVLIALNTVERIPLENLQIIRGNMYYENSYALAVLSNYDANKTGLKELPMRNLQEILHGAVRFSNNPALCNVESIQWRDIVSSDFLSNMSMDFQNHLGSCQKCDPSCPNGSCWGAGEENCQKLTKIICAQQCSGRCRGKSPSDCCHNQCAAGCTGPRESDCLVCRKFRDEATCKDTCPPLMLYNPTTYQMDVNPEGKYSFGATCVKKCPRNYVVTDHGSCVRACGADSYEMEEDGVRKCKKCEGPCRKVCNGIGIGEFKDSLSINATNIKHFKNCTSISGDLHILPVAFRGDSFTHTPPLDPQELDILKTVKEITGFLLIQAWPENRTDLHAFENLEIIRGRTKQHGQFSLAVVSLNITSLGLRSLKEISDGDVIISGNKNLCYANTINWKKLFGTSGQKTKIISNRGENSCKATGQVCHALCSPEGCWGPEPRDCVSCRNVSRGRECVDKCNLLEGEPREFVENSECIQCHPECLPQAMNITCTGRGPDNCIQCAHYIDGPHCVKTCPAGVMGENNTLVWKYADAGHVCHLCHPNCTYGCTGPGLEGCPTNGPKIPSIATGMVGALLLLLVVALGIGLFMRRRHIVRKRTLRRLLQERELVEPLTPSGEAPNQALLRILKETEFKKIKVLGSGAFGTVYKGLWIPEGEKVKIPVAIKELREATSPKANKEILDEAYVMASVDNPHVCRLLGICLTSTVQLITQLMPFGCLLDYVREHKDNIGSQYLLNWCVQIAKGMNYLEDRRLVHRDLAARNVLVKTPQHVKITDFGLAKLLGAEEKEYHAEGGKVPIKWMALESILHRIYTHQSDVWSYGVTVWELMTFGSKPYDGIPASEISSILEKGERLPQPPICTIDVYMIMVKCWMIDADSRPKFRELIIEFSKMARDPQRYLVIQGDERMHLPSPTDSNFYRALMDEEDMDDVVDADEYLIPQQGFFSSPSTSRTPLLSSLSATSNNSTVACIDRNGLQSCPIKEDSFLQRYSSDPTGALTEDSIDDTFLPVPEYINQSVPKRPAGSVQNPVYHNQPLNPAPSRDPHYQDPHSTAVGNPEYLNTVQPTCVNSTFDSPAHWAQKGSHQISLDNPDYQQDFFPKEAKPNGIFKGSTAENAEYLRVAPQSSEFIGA
Sequence of Tyrosine-protein kinase Tec (Homo sapiens) (P42680 whole entry, the tested form may be a part): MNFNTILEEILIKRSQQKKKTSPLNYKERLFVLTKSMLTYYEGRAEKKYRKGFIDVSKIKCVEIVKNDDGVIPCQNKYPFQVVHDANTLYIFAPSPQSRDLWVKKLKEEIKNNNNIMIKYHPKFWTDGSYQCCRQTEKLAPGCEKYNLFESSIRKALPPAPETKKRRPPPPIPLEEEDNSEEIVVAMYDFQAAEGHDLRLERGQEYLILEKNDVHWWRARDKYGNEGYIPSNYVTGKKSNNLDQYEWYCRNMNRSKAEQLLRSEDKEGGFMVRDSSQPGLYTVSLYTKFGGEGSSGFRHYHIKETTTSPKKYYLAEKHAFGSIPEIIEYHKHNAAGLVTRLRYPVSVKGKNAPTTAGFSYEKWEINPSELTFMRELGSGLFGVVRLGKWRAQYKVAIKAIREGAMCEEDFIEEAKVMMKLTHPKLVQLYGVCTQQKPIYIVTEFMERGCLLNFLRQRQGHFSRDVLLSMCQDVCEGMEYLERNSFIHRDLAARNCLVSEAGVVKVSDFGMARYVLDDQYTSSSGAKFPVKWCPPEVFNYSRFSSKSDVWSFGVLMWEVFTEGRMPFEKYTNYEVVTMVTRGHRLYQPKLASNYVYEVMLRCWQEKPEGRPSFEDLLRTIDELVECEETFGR
Sequence of Protein-tyrosine kinase 6 (Homo sapiens) (Q13882 whole entry, looked up, the tested form may be a part): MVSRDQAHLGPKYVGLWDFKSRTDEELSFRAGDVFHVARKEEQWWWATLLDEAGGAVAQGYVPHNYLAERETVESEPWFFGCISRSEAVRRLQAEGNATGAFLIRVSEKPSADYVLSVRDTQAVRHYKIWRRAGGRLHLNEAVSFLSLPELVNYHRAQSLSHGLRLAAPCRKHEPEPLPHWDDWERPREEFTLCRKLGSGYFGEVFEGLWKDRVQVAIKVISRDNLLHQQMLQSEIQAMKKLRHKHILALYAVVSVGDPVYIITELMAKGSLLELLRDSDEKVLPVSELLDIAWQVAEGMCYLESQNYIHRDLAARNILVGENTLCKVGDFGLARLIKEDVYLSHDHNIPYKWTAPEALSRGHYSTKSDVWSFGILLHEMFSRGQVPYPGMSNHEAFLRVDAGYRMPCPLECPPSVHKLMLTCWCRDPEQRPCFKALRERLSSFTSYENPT
Sequence of Cyclin-dependent kinase-like 1 (Homo sapiens) (Q00532 whole entry, the tested form may be a part): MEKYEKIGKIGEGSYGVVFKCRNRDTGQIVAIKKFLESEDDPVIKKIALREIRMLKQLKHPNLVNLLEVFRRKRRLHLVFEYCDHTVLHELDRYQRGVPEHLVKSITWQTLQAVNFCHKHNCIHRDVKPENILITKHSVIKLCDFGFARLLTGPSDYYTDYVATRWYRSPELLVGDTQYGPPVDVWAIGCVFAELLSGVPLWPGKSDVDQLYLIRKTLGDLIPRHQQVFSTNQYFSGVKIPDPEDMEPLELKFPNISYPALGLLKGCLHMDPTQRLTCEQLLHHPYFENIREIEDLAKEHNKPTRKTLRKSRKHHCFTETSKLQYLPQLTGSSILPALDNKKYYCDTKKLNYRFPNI

**Q.** What does the source list for `CC(C)Nc1sc(C(=O)c2ccc(Cl)s2)c(N)c1C#N`?
**A.** IC50 [1]: 192 nM; Activity [2]: 100%; Activity [3]: 70%; Activity [4]: 82%; Activity [5]: 83%; Activity [6]: 100%; Activity [7]: 93%; Activity [8]: 93%; Activity [9]: 100%; Activity [10]: 77%; Activity [11]: 100%; Activity [12]: 98%; Activity [13]: 82%; Activity [14]: 100%; Activity [15]: 80%; Activity [16]: 97%; Activity [17]: 79%; Activity [18]: 93%; Activity [19]: 100%; Activity [20]: 72%; Activity [21]: 74%; Activity [22]: 83%; Activity [23]: 85%; Activity [24]: 94%; Activity [25]: 100%
